We go through ten molecules from publication PMC11400632, “Substrate selectivity and inhibition of the human lysyl hydroxylase JMJD7” (Protein Science : A Publication of the Protein Society, 2024).

The target of assay [1] is T1, human JMJD7 (Homo sapiens, UniProt P0C870).
T1 construct: human JMJD7 (residues 1–316) with an N‐terminal His6‐tag; His6 (N); made in house; host or cells: Escherichia coli Rosetta (DE3)
The experiment in a line: MALDI-TOF MS JMJD7 inhibition assay. It is filed as biochemical.

The target of assay [2] is T1, human JMJD7. The experiment in a line: LC-MS assay of JMJD7-catalyzed hydroxylation/oxidation of DRG1 peptides. The class given is biochemical. The conditions noted are these: 10 μM FAS, 100 μM LAA. On the procedure: Initial assays were carried out by incubation of purified recombinant (Markolovic et al., [2018]) human JMJD7 (2 μM) in the presence of a DRG1 derived peptide (10 μM), 2OG (10 μM), ferrous ammonium sulfate (FAS, 10 μM), and L‐ascorbate (LAA, 100 μM) in Tris buffer at pH 7.5 for 2 h at room temperature. Potential conversion to a hydroxylated product (+16 Da mass shift) was monitored by liquid‐chromatography‐mass‐spectrometry (LC–MS). […] The assay results also implied that DRG1‐Orn was hydroxylated, but to a lower extent (~21%) than DRG1‐Lys. […] The alcohol‐containing peptide hydroxynorleucine (DRG1‐HNle), was hydroxylated at relatively low levels (~24%), implying that H‐bonding interactions and positive charge of the N^ɛ‐amino group of lysine are important for efficient binding and catalysis, but that a neutral alcohol can still be accommodated at the active site (Figure 3f) (Markolovic et al., [2018]).
All reagents were procured from Sigma Aldrich. 2‐Oxoglutarate (2OG, 10 mM) and L‐ascorbic acid (LAA, 50 mM) solutions were prepared freshly by dissolving the solids in deionized water. Ferrous ammonium sulfate (FAS) solution was prepared freshly by dissolving FAS at 400 mM in 20 mM HCl with subsequent dilution to 1 mM using deionized water. JMJD7 assays using DRG1 (16–40) based peptides were performed with the following conditions: (i) 2 or 5 μM JMJD7, 10 μM DRG1 peptide, 100 μM LAA, 10 μM FAS, 10 μM 2OG in mM 50 Tris‐buffer (pH 7.5), (ii) 2 μM JMJD7, 10 μM DRG1 peptide, 100 μM LAA, 10 μM FAS, 20 μM 2OG in mM 50 Tris‐buffer (pH 7.5). Reactions were initiated by addition of enzyme to the cosubstrate/substrate solution in a final reaction volume of 50 μL with 2 h incubation at room temperature. A positive control reaction containing enzyme and a validated peptide substrate was included in all screening studies. After 2 h, reactions were stopped by addition of 5 μL of 10% (v/v) LC–MS grade formic acid (Fisher Scientific) and transferred to a 96 well plate (Agilent). Intact mass peptide analysis was performed by LC–MS using an Agilent 1290 infinity II LC system equipped with an Agilent 1290 multisampler and an Agilent 1290 high speed pump and connected to an Agilent 6550 accurate mass iFunnel quadrupole time of flight (Q‐TOF) mass spectrometer. The reaction mixture (4 μL) was injected and loaded onto a ZORBAX RRHD Eclipse Plus C18 column (Agilent). Solvent A consisted of LC–MS grade water containing 0.1% (v/v) formic acid and solvent B consisted of MeCN containing 0.1% (v/v) formic acid. Peptides were separated using a step wise gradient (0 min – 95% solvent A, 1.0 min – 80% solvent A, 3.0 min – 45% solvent A, 4.0 min – 45% solvent A, 5.0 min – 0% solvent A, 6.0 min – 0% solvent A, 7.0 min – 95% solvent A). This was followed by a 3 min elution with 95% solvent A to re‐equilibrate the column. Flow rates were 0.2 mL/min. The mass spectrometer was operated in the positive ion mode with a drying gas temperature (280°C), drying gas flow rate (13 L min^−1), nebulizer pressure (40 psig), sheath gas temperature (350°C), sheath gas flow rate (12 L min^−1), capillary voltage (4000 V), nozzle voltage (1000 V). Data were analyzed using Agilent MassHunter Qualitative Analysis (Version B.07.00) software.

Assay [3] addresses T1, human JMJD7. The assay is described as follows: MALDI-TOF MS JMJD7 inhibition assay. The class given is biochemical. On the procedure: Due to signal overlaps between some DRG1 peptides and the reference DRG1‐Lys substrate, we synthesized a shorter reference substrate peptide (DRG1‐Lys, residues 17–40) for use in the MS‐based inhibition assays. Synthetic DRG1 peptides (residues 16–40, 10 or 50 μM) were preincubated with JMJD7 (200 nM) for 15 min, after which time the DRG1‐Lys substrate (residues 17–40, 5 μM), 2OG (10 μM), FAS […] and LAA […] were added, and the reaction were carried out for 25 min at room temperature. Most of the DRG1 peptides were not active as JMJD7 inhibitors at 10 μM (residual activity of JMJD7 >50%) (Figure S41a,b), with exceptions including the DRG1‐Orn, DRG1‐hGln and DRG1‐4pyrA peptides.
Single point screening assays were as follows; initially, JMJD7 (200 nM) and substituted DRG1 peptide (10 or 50 μM) were incubated for 15 min, followed by the addition of a mixture of the DRG1‐Lys substrate (5 μM), 2OG (10 μM), FAS (10 μM) and LAA (100 μM) in a final volume of 50 μL in Tris‐buffer (pH 7.5) and incubated for additional 25 min at room temperature. […] Reactions were quenched by the addition of 10% (v/v) formic acid and mixed 1:1 with CHCCA matrix (1:1 v/v MeCN:H2O) then analyzed by MALDI‐TIMS‐TOF MS. JMJD7 activity was determined by calculating the integral of hydroxylated peptide and normalized to a control reaction in absence of potential inhibitory peptides. Every experiment was performed in duplicate (n = 2), error bars are reported as SE.
This is another data set of the same source.

The target of assay [4] is human Jumonji-C (JmjC) domain-containing protein 7 (JMJD7), residues 1-316 (human) (UniProt P0C870).
The target is the same in assay [5]. This is another data set of the same source.
[6] abbreviates: 200 nM JMJD7 preincubated 15 min with peptide (1 nM–150 μM), 5 μM DRG1-Lys (17–40) substrate, 10 μM 2OG, 25 min, room temperature, Tris pH 7.5, MALDI MS, duplicate (n = 2), ± SE, read-out: IC50 (JMJD7 inhibition, with 15 min preincubation).

pIC50: −log10 of the molar value. Where two headings read alike, the source gives them in different places. Square brackets hold non-standard residues; d marks the D form. Ends that are not written are not given here. Peptide text beside a SMILES is read from it. 4Pal = N[C@@H](Cc1ccncc1)C(=O)O; Aad = N[C@@H](CCCC(=O)O)C(=O)O; Sec = N[C@@H](C[SeH])C(=O)O; Orn = NCCC[C@H](N)C(=O)O

T1 sequence (P0C870 whole entry, the tested form may be a part): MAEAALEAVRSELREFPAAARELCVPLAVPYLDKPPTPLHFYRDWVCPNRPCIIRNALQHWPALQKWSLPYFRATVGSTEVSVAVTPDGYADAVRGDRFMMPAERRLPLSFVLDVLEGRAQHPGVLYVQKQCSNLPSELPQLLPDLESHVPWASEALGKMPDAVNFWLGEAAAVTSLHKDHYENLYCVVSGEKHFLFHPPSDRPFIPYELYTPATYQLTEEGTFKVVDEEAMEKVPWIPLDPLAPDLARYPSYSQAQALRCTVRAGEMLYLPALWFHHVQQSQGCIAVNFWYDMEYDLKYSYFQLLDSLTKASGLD
human Jumonji-C (JmjC) domain-containing protein 7 (JMJD7), residues 1-316 (human), sequence (P0C870 whole entry, the tested form may be a part): as above
DRG1-Orn peptide (DRG1 residues 16-40, Orn in place of Lys22), sequence (peptide): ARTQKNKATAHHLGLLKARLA

On to `CC(C)C[C@H](NC(=O)CNC(=O)[C@H](CC(C)C)NC(=O)[C@H](Cc1c[nH]cn1)NC(=O)[C@H](Cc1c[nH]cn1)NC(=O)[C@H](C)NC(=O)[C@@H](NC(=O)[C@H](C)NC(=O)[C@H](Cc1ccncc1)NC(=O)[C@H](CC(N)=O)NC(=O)[C@H](CCCCN)NC(=O)[C@H](CCC(N)=O)NC(=O)[C@@H](NC(=O)[C@H](CCCNC(=N)N)NC(=O)[C@H](C)N)[C@@H](C)O)[C@@H](C)O)C(=O)N[C@@H](CC(C)C)C(=O)N[C@@H](CCCCN)C(=O)N[C@@H](C)C(=O)N[C@@H](CCCNC(=N)N)C(=O)N[C@@H](CC(C)C)C(=O)N[C@@H](C)C(=O)N[C@@H](CCCCN)C(=O)N[C@@H](CC(C)C)C(=O)N[C@@H](CCCNC(=N)N)C(=O)N[C@@H](CCCNC(=N)N)C(N)=O` [DRG1‐4pyrA] (H-ARTQKN[4Pal]ATAHHLGLLKARLAKLRR-NH2), for which the pIC50 on human JMJD7 [1] (setting [6]) is 4.82.
For the molecule `CC(C)C[C@H](NC(=O)CNC(=O)[C@H](CC(C)C)NC(=O)[C@H](Cc1c[nH]cn1)NC(=O)[C@H](Cc1c[nH]cn1)NC(=O)[C@H](C)NC(=O)[C@@H](NC(=O)[C@H](C)NC(=O)[C@H](CCCN)NC(=O)[C@H](CC(N)=O)NC(=O)[C@H](CCCCN)NC(=O)[C@H](CCC(N)=O)NC(=O)[C@@H](NC(=O)[C@H](CCCNC(=N)N)NC(=O)[C@H](C)N)[C@@H](C)O)[C@@H](C)O)C(=O)N[C@@H](CC(C)C)C(=O)N[C@@H](CCCCN)C(=O)N[C@@H](C)C(=O)N[C@@H](CCCNC(=N)N)C(=O)N[C@@H](CC(C)C)C(=O)N[C@@H](C)C(=O)N[C@@H](CCCCN)C(=O)N[C@@H](CC(C)C)C(=O)N[C@@H](CCCNC(=N)N)C(=O)N[C@@H](CCCNC(=N)N)C(N)=O` [DRG1‐Orn] (H-ARTQKN[Orn]ATAHHLGLLKARLAKLRR-NH2), the “extent of hydroxylation by JMJD7 at higher 2OG concentration” value on human JMJD7 [2] (2 μM JMJD7, 10 μM peptide, 20 μM 2OG, pH 7.5, 2 h incubation) is ~ 31%. Also, on human JMJD7 [2] (standard conditions: 2 μM JMJD7, 10 μM DRG1 peptide, 10 μM 2OG, Tris pH 7.5, 2 h, room temperature), the “extent of hydroxylation (+16 Da) by JMJD7” value was ~ 21%. Also, the pIC50 on human JMJD7 [1] (setting [6]) is 4.85. Further, the “single point inhibition of JMJD7 at 50 μM peptide” value on human JMJD7 [3] (50 μM DRG1 peptide, 200 nM JMJD7, 15 min preincubation, 5 μM DRG1-Lys substrate) is “clear inhibition”.
As to `CC(C)C[C@H](NC(=O)CNC(=O)[C@H](CC(C)C)NC(=O)[C@H](Cc1c[nH]cn1)NC(=O)[C@H](Cc1c[nH]cn1)NC(=O)[C@H](C)NC(=O)[C@@H](NC(=O)[C@H](C)NC(=O)[C@H](C[SeH])NC(=O)[C@H](CC(N)=O)NC(=O)[C@H](CCCCN)NC(=O)[C@H](CCC(N)=O)NC(=O)[C@@H](NC(=O)[C@H](CCCNC(=N)N)NC(=O)[C@H](C)N)[C@@H](C)O)[C@@H](C)O)C(=O)N[C@@H](CC(C)C)C(=O)N[C@@H](CCCCN)C(=O)N[C@@H](C)C(=O)N[C@@H](CCCNC(=N)N)C(=O)N[C@@H](CC(C)C)C(=O)N[C@@H](C)C(=O)N[C@@H](CCCCN)C(=O)N[C@@H](CC(C)C)C(=O)N[C@@H](CCCNC(=N)N)C(=O)N[C@@H](CCCNC(=N)N)C(N)=O` [DRG1‐Sec] (H-ARTQKN[Sec]ATAHHLGLLKARLAKLRR-NH2), the pIC50 at human JMJD7 [1] (setting [6]) was 5.84; on human JMJD7 [1] (same assay conditions but without preincubation, read-out: IC50 (JMJD7 inhibition, without preincubation)), 5.55.
As to `CC(C)C[C@H](NC(=O)CNC(=O)[C@H](CC(C)C)NC(=O)[C@H](Cc1c[nH]cn1)NC(=O)[C@H](Cc1c[nH]cn1)NC(=O)[C@H](C)NC(=O)[C@@H](NC(=O)[C@H](C)NC(=O)[C@H](CCCC(N)=O)NC(=O)[C@H](CC(N)=O)NC(=O)[C@H](CCCCN)NC(=O)[C@H](CCC(N)=O)NC(=O)[C@@H](NC(=O)[C@H](CCCNC(=N)N)NC(=O)[C@H](C)N)[C@@H](C)O)[C@@H](C)O)C(=O)N[C@@H](CC(C)C)C(=O)N[C@@H](CCCCN)C(=O)N[C@@H](C)C(=O)N[C@@H](CCCNC(=N)N)C(=O)N[C@@H](CC(C)C)C(=O)N[C@@H](C)C(=O)N[C@@H](CCCCN)C(=O)N[C@@H](CC(C)C)C(=O)N[C@@H](CCCNC(=N)N)C(=O)N[C@@H](CCCNC(=N)N)C(N)=O` [DRG1‐hGln] (H-ARTQKN[Aad](NH2)ATAHHLGLLKARLAKLRR-NH2), at human JMJD7 [1] (setting [6]), the pIC50 is 5.11.
As to “DRG1-4pyrA peptide (DRG1 residues 16-40, 4pyrA in place of Lys22)”, in assay [4], the IC50 of inhibition of JMJD7-catalysed (200 nM) hydroxylation of the DRG1-Lys substrate (residues 17-40, 5 μM), MALDI-TOF MS, 15 min preincubation was 15.2 µM.
In assay [5], “DRG1-Cys peptide (DRG1 residues 16-40, Cys in place of Lys22)” registered an IC50 of inhibition of JMJD7-catalysed hydroxylation of the DRG1-Lys substrate, MALDI-TOF MS, 15 min preincubation of 1.25 µM and an IC50 of inhibition of JMJD7-catalysed hydroxylation of the DRG1-Lys substrate, MALDI-TOF MS, without preincubation of 16 µM.
Regarding “DRG1-Orn peptide (DRG1 residues 16-40, Orn in place of Lys22)”, the IC50 of inhibition of JMJD7-catalysed (200 nM) hydroxylation of the DRG1-Lys substrate (residues 17-40, 5 μM), MALDI-TOF MS, 15 min preincubation in assay [4] came out at 14 µM.
In assay [5], “DRG1-Sec peptide (DRG1 residues 16-40, selenocysteine in place of Lys22)” displayed an IC50 of inhibition of JMJD7-catalysed hydroxylation of the DRG1-Lys substrate, MALDI-TOF MS, 15 min preincubation of 1.46 µM and an IC50 of inhibition of JMJD7-catalysed hydroxylation of the DRG1-Lys substrate, MALDI-TOF MS, without preincubation of 2.8 µM.
“DRG1-hGln peptide (DRG1 residues 16-40, hGln in place of Lys22)” yielded an IC50 of inhibition of JMJD7-catalysed (200 nM) hydroxylation of the DRG1-Lys substrate (residues 17-40, 5 μM), MALDI-TOF MS, 15 min preincubation in assay [4] of 7.68 µM.
In the case of “DRG1‐Cys (residues 19–25): shorter peptide fragment DRG1-Cys (residues 19–25) (QKNCATA-NH2)”, the “inhibition of JMJD7 by the shorter peptide fragment” value with human JMJD7 [3] (standard conditions) is reported as “No inhibition”.
